The source of these data is ChEMBL document CHEMBL3734688, “Synthesis and evaluation of 6-methylcoumarin derivatives as potent and selective monoamine oxidase B inhibitors” (Medchemcomm, 2015).

The structures appear in SMILES notation.

For series [1], the target named is T1, Amine oxidase [flavin-containing] B (Homo sapiens, UniProt P27338).
T1 sequence (P27338 whole entry): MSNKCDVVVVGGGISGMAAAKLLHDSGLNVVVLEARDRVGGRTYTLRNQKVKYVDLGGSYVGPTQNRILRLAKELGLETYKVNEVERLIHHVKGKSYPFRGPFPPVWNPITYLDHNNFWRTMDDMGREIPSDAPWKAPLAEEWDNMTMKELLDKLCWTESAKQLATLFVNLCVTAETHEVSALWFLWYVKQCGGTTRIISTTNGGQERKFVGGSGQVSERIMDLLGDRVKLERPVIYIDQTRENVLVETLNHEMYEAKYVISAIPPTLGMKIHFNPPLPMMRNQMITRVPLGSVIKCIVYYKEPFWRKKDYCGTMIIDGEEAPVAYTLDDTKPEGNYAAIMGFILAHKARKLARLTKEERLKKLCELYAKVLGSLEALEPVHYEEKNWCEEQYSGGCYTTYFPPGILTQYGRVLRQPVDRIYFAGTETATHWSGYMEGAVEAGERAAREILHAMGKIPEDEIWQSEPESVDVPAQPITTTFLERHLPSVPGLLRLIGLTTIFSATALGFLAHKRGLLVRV
In words: Inhibition of recombinant human MAO-B using p-tyramine as substrate preincubated for 15 mins followed by substrate addition by Amplex Red probe-based fluorometric analysis.

In series [2] the target is T2, Amine oxidase [flavin-containing] A (Homo sapiens, UniProt P21397).
T2 sequence (P21397 whole entry): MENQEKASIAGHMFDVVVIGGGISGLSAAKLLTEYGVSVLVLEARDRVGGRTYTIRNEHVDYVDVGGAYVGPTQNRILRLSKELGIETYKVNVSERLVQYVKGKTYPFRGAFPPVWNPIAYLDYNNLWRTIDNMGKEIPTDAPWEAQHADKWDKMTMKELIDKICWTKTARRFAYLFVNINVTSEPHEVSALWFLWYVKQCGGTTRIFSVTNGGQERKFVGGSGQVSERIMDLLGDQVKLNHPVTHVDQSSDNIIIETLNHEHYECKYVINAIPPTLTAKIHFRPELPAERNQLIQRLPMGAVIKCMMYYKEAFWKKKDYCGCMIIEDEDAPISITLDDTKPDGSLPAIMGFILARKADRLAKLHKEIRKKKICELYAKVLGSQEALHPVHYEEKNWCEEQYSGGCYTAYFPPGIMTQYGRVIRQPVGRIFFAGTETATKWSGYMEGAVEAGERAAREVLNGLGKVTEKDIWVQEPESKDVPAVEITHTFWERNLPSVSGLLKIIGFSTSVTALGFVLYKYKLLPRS
The series can be described thus: Inhibition of recombinant human MAO-A using p-tyramine as substrate at 100 uM preincubated for 15 mins followed by substrate addition by Amplex Red probe-based fluorometric analysis.

For another series, the species on record is Homo sapiens. In words: Selectivity index, ratio of IC50 for recombinant human MAO-A to IC50 for recombinant human MAO-B.
In series [3] the target is T2, Amine oxidase [flavin-containing] A. In words: Inhibition of recombinant human MAO-A using p-tyramine as substrate preincubated for 15 mins followed by substrate addition by Amplex Red probe-based fluorometric analysis.
The nature of series [4]: Neurotoxicity in rat PC12 cells assessed as cell viability at 2.5 to 20 uM after 48 hrs by MTT assay. In kind it is toxicity, cell-based. As to conditions: pc-12, 48 h; call rule not given here.
The next series relates to HUVEC. In words: Toxicity in HUVEC assessed as cell viability at 2.5 to 20 uM after 48 hrs by MTT assay. The settings on record: human. In kind it is cell-based.
The next series has as its system SH-SY5Y. The series can be described thus: Neurotoxicity in human SH-SY5Y cells assessed as cell viability at 2.5 to 20 uM after 48 hrs by MTT assay. It counts as toxicity, cell-based. In general terms: Formazan colour is commonly taken as a measure of viable cells.

For orientation: IC50 means the concentration that inhibits the measured activity by half. As to `Cc1ccc2oc(=O)c(-c3cccc(OCc4ccccc4)c3)cc2c1`, the half-maximal inhibitory concentration (IC50) in series [1] was found to be 0.201 µM. In addition, the “inhibition (INH)” value in series [2] is reported as “Not Active”. For the same molecule, in the series listed under Homo sapiens, the Ratio IC50 was over 498.
For `Cc1ccc2oc(=O)c(-c3ccc(OCc4cccc(F)c4)cc3)cc2c1` the same measures were 0.175 µM, “Not Active” and over 572.
With `Cc1ccc2oc(=O)c(-c3c[nH]c4ccccc34)cc2c1`, the concentration for half-maximal inhibition (IC50) was 5.67 µM in series [1] and 43.9 µM in series [3]. Besides, the Ratio IC50 in the series listed under Homo sapiens worked out at 7.75.
For `Cc1ccc2oc(=O)c(-c3cccc(OCCBr)c3)cc2c1` the same measures were 2.45 µM, 20.7 µM and 8.47.
Turning to `Cc1ccc(S(=O)(=O)Oc2cccc(-c3cc4cc(C)ccc4oc3=O)c2)cc1`, in series [1], the IC50 amounted to 0.305 µM. The “inhibition (INH)” value in series [2] is recorded as “Not Active”. Moreover, the Ratio IC50 in the series listed under Homo sapiens is over 328.
Turning to `Cc1ccc2oc(=O)c(-c3cccc(OCCCBr)c3)cc2c1`, the figures for the half-inhibitory concentration (IC50) in series [1] and in series [3] were 3.67 µM and 19.5 µM, respectively. Moreover, the Ratio IC50 in the series filed under Homo sapiens was 5.3.
For `Cc1ccc2oc(=O)c(-c3cccc(OCCCN(C)C)c3)cc2c1` the same measures were 0.905 µM, 34.9 µM and 38.6.
`CC(=O)Oc1ccccc1-c1cc2cc(C)ccc2oc1=O`: the IC50 in series [1] was found to be 0.938 µM. Moreover, the “inhibition (INH)” value in series [2] was “Not Active”. Also, in the series listed under Homo sapiens, the Ratio IC50 is over 107.
Take `Cc1ccc2oc(=O)c(-c3cccc(OC(=O)N(C)C)c3)cc2c1`: the IC50 in series [1] was 4.43 µM. In addition, the “inhibition (INH)” value in series [2] was “Not Active”. The Ratio IC50 in the series filed under Homo sapiens is over 22.6.
Take `Cc1ccc2oc(=O)c(-c3cccc4ccccc34)cc2c1`: the IC50 was determined as 6.49 µM in series [1] and 55.5 µM in series [3]. Further, the Ratio IC50 in the series listed under Homo sapiens worked out at 8.55.
With `Cc1ccc2oc(=O)c(-c3cccc(OCc4cccc(F)c4)c3)cc2c1`, the Activity result (in series [4]; in the series on HUVEC; with SH-SY5Y) was “Non-toxic” throughout. For the same molecule, in series [1], the IC50 came out at 0.0601 µM. Besides, the “inhibition (INH)” value in series [2] is “Not Active”. In addition, the Ratio IC50 in the series listed under Homo sapiens is over 1660.
On to `CC(=O)Oc1ccc(-c2cc3cc(C)ccc3oc2=O)cc1`, for which the IC50 in series [1] turned out to be 0.401 µM. In series [2], the “inhibition (INH)” value is recorded as “Not Active”. Further, in the series filed under Homo sapiens, the Ratio IC50 is over 249.
For `Cc1ccc2oc(=O)c(-c3cccc(OCCCCN(C)C)c3)cc2c1`, the IC50 in series [1] worked out at 1.13 µM; in series [3], 26.7 µM. Besides, the Ratio IC50 in the series listed under Homo sapiens worked out at 23.6.
In the case of `Cc1ccc2oc(=O)c(-c3cccs3)cc2c1`, the IC50 turned out to be 3.76 µM in series [1] and 8.09 µM in series [3]. Further, in the series listed under Homo sapiens, the Ratio IC50 worked out at 2.16.
On to `Cc1ccc2oc(=O)c(-c3ccccc3OCc3ccccc3)cc2c1`, for which the IC50 in series [1] is 0.256 µM. Also, the “inhibition (INH)” value in series [2] is listed as “Not Active”. In addition, the Ratio IC50 in the series filed under Homo sapiens was over 390.
With `Cc1ccc2oc(=O)c(-c3ccccc3OCc3cccc(F)c3)cc2c1`, the IC50 in series [1] was 0.253 µM. In addition, the “inhibition (INH)” value in series [2] was “Not Active”. Besides, the Ratio IC50 in the series filed under Homo sapiens is over 395.
With `Cc1ccc2oc(=O)c(-c3cccc(OC(=O)c4ccccc4)c3)cc2c1`, the IC50 in series [1] was 0.651 µM; in series [3] it was 15.8 µM. In addition, the Ratio IC50 in the series filed under Homo sapiens turned out to be 24.2.
For `Cc1ccc2oc(=O)c(-c3cccnc3)cc2c1` the same measures were 2.58 µM, 6.67 µM and 2.59.
In the case of `Cc1ccc2oc(=O)c(-c3ccc(OCc4ccccc4)cc3)cc2c1`, the IC50 in series [1] came to 0.106 µM. In addition, the “inhibition (INH)” value in series [2] was “Not Active”. The Ratio IC50 in the series listed under Homo sapiens is over 947.
`Cc1ccc2oc(=O)c(-c3cccc(OCCCCBr)c3)cc2c1`: the half-inhibitory concentration (IC50) was found to be 10.7 µM in series [1] and 40.6 µM in series [3]. Moreover, in the series listed under Homo sapiens, the Ratio IC50 worked out at 3.79.
For the molecule `CC(=O)Oc1cccc(-c2cc3cc(C)ccc3oc2=O)c1`, the IC50 in series [1] worked out at 0.714 µM. Also, the “inhibition (INH)” value in series [2] is on record as “Not Active”. Further, the Ratio IC50 in the series filed under Homo sapiens was over 140.
For `Cc1ccc2oc(=O)c(-c3cccc(OCCN(C)C)c3)cc2c1` the same measures were 0.218 µM, “Not Active” and over 459.
